According to patent US7011972B2, “Fusion polypeptide comprising two ligand binding domains” (The Scripps Research Institute, priority 2000, dated 2006):
Entries after “also recorded” stand apart in the source; their conditions may differ.

Legend:
ER-VP64 (mouse) = ER-VP64 (mouse) (UniProt P19785); assay: cell-based or functional assay
[1] = test system: E2C-TATA-luciferase reporter plasmid carrying a single E2C binding site; assay: Luciferase reporter assay, E2C-TATA-luc in HeLa cells; format: cell-based; details: 4-OHT
Method: A, structure of ER fusion proteins. E2C, six finger protein; L, flexible peptide linker. B, fusion proteins with a single ER-LBD bind as dimers. HeLa cells were cotransfected with a C7-ER-VP64 expression vector, and the indicated TATA luciferase reporter plasmids carrying either one or two C7 binding sites. 24 h after transfection, cells were either left untreated (−), or 100 nM 4-OHT was added (+). Luciferase activity in total cell extracts was measured 48 h after transfection. Each bar represents the mean value (+/−SD) of duplicate measurements. […] C, D, regulation of transcription through a single binding site by fusion proteins with two ER-LBDs. HeLa cells were cotransfected with the indicated expression vectors and the E2C-TATA-luciferase reporter plasmid, carrying a single E2C binding site upstream of a TATA box. 4-OHT induction and measurement of luciferase activity was carried out as described in B.
A, structure of single-chain RXR/EcR fusion proteins. B, regulation of transcription through a single binding site. HeLa cells were cotransfected with the indicated expression vectors and the E2C-TATA-luciferase reporter plasmid, carrying a single E2C binding site. 24 h after transfection, cells were either left untreated (−), or 5 μM Ponasterone A was added (+). Luciferase activity in total cell extracts was measured 48 h after transfection.
(§1) Luciferase and βP-gal reporter assays.
To overcome these problems, we produced two types of ER-based chimeric regulators, designed to be capable of regulating gene expression through a single binding site in a hormone-dependent manner. In the first strategy, a heterodimeric regulator was generated consisting of the engineered zinc finger protein E2C fused to an ER LBD, as well as an ER LBD fused to a VP64 activation domain (FIG. 2A). […] Addition of hormone led to a 3- to 5-fold stimulation of luciferase expression, indicating the formation of functional heterodimers. […]

[2] = test system: 10×B3-TATA-luc reporter (with B3-PR-VP16 and N1-ER-VP64) in HeLa cells; assay: Dual reporter assay, luciferase; format: cell-based; details: HeLa cells expressing B3-PR-VP16 and N1-ER-VP64
Text: (§2) RU486- and Tamoxifen-inducible promoter constructs. 10×C7-TATA, 10×B3-TATA, and 10×N1-TATA fragments were assembled from two pairs of complementary oligonucleotides each and cloned into Sac1-Xma1 linearized pGL3-Basic (Promega), upstream of the firefly luciferase coding region, creating the plasmids 10×C7-TATA-luc, 10×B3-TATA-luc, and 10×N1-TATA-luc. To generate the 10×N1-TATA-lacZ reporter construct, the lacZ coding region was excised from pβgal-Basic (Clontech) and used to replace the luciferase coding region of 10×N1-TATA-luc via Hind3-BamH1 digestion. Luciferase and βP-gal reporter assays. […] Concomitant regulation of multiple promoters. Zinc finger technology has made a large repertoire of DNA binding specificities available for use in protein engineering [[…]., and Barbas, C. F., III (1998) Proc. Natl. Acad. Sci. USA 95, 14628-14633; […]., and Barbas, C. F., III (1999) Proc. Natl. Acad. Sci. USA 96, 2758-2763; […]., and Barbas, C. F., III (2000) Proc. Natl. Acad. Sci. USA 97, 1495-1500]. The availability of different steroid hormone receptor-derived regulatory domains [Littlewood, T. D., Hancock, […]., Parker, M. G., and Evan, G. I. (1995) Nucl. […] The transfected cells were treated with either RU486 or 4-OHT and the luciferase and β-gal activities were monitored.

[3] = test system: 10×N1-TATA-β-gal reporter (with B3-PR-VP16 and N1-ER-VP64) in HeLa cells; assay: Dual reporter assay, β-gal; format: cell-based; details: HeLa cells expressing B3-PR-VP16 and N1-ER-VP64
Text: as §2

hPR (aa645-914) LBD = biological target: T1, hPR (aa645-914) LBD (Homo sapiens, UniProt P06401); assay: Ligand crossreactivity on PR fusion, 10×C7-TATA-luc reporter; format: cell-based; details: PR LBD fusion proteins
T1 construct: The human PR truncated LBD (aa645-914) was amplified from PAPCMVGL914VPc′-SV; expressed in transfected cells; host or cells: HeLa cells, effector plasmid in pcDNA3.1(+)Zeo
T1 sequence (P06401 645-914): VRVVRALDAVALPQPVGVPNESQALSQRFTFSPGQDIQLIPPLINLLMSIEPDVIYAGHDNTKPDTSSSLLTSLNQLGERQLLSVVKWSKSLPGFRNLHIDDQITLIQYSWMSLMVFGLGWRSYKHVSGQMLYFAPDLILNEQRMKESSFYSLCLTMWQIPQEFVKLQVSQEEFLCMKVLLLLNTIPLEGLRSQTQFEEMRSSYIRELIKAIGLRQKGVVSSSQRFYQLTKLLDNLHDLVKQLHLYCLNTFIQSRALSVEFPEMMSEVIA
Method: as §1
The chimeric transcriptional regulators were then tested for their ability to regulate the 10×C7-TATA-luc reporter plasmid in a hormone dependent manner. 10×C7-TATA-luc contains ten C7 binding sites [5′-GCG TGG GCG-3′] spaced by 5 nucleotides, and a TATA box, upstream of the firefly luciferase coding region. […] RU486 stimulated the activity of VP16-C7-PR 26-fold, while 4-OHT led to a 43-fold activation of VP16-C7-ER. […] The presence of a NLS in either position was not only not required, but even undesirable, since it led to an increased basal (i.e. hormone-independent) activity of the fusion constructs, presumably through increased nuclear localization. Thus, the hPR (aa645-914) and mER (aa281-599, G525R) LBDs are able to confer hormone-dependence onto the zinc finger protein C7.

Molecule | hormone-dependent activation of E2C-TATA-luc reporter [1] | β-gal reporter gene activity (10×N1-TATA-β-gal) [3] | further results
E2C-ER (from UniProt P19785 281-599) |  |  | luciferase expression from the E2C-TATA-luc reporter (single E2C site) in HeLa cells, stimulation by 4-OHT (ER-VP64 (mouse)): 3 to 5 fold
E2C-scER/30-VP64: single-chain fusion of E2C, two ER LBDs joined by 30 amino acid linker, VP64 | efficiently activated |  | 
4-hydroxytamoxifen [4-OHT] |  | efficiently activated | luciferase expression (10×B3-TATA-luc) [2]: did not affect; crossreactivity between 4-OHT and PR (hPR (aa645-914) LBD): no detectable crossreactivity; also recorded: no detectable crossreaction
E2C-scER/18-VP64: single-chain fusion of E2C, two ER LBDs joined by 18 amino acid linker, VP64 | efficiently activated |  | 
CC#C[C@]1(O)CC[C@H]2[C@@H]3CCC4=CC(=O)CCC4=C3[C@@H](c3ccc(N(C)C)cc3)C[C@@]21C [RU486, 11β-(4-dimethylaminophenyl)-17β-hydroxy-17α-propinyl-4,9-e stradiene-3-one] |  | no effect | 
ER-VP64: ER LBD fused to a VP64 activation domain (protein, left off: large carriers) RNEMGASGDMRAANLWPSPLVIKHTKKNSPALSLTADQMVSALLDAEPPMIYSEYDPSRPFSEASMMGLLTNLADRELVHMINWAKRVPGFGDLNLHDQVHLLECAWLEILMIGLVWRSMEHPGKLLFAPNLLLDRNQGKCVEGMVEIFDMLLATSSRFRMMNLQGEEFVCLKSIILLNSGVYTFLSSTLKSLEEKDHIHRVLDKITDTLIHLMAKAGLTLQQQHRRLAQLLLILSHIRHMSNKRMEHLYNMKCKNVVPLYDLLLEMLDAHRLHAPASRMGVPPEEPSQTQLATTSSTSAHSLQTYYIPPEAEGFPNTI | inactive |  | 
